In brackets after ≈: the same amount, converted by molar mass. Where two headings read alike, the source gives them in different places.
Legend:
Assay type in all cases: cell-based
[1] = system: Lactobacillus salivarius JMI 941623; assay: MIC, agar dilution drug sensitivity test; conditions: Ligilactobacillus salivarius, JMI941623, Table 1
[2] = system: Morganella morganii MMX 6123; assay: MIC, agar dilution drug sensitivity test; conditions: MMX6123, Table 1
[3] = system: Eggerthella lenta ATCC 43055; assay: MIC, agar dilution drug sensitivity test; conditions: ATCC43055, Table 1
[4] = system: Serratia marcescens ATCC 43862; assay: MIC, agar dilution drug sensitivity test; conditions: Serratia marcescens, ATCC43862, Serratia marcescens ATCC 43862, read-out: MIC
[5] = system: Haemophilus parainfluenzae ATCC 49247; assay: MIC, microscale broth dilution drug sensitivity test; conditions: ATCC49247; Haemophilus parainfluenzae ATCC 49247; Aerobic; read-out: MIC
Method: (§1) In this embodiment, compound I-rifamycin-quinolizidone dual-action molecule is used in a drug sensitivity test on pathogenic bacteria associated with hepatic encephalopathy, the pathogenic bacteria including the above ammonia-producing bacteria. Except that Haemophilus is tested using the microscale broth dilution method, all the other bacteria are tested using the agar dilution method consistent with that in the Guideline of the Clinical and Laboratory Standards Institute (CLSI; 1-3). All the other drug susceptibility tests are performed under anaerobic conditions except that some selective isolates are tested under both aerobic and anaerobic conditions. Control compounds include metronidazole, rifampicin, clindamycin (under anaerobic conditions) and ciprofloxacin (under aerobic and anaerobic conditions). The tested clinical isolates may be reference strains obtained from American Type Culture Collection, ATCC, Manassas, Va. After being received, the strains are respectively inoculated on appropriate agar plates and placed under optimized conditions for growth. The growing strains are cloned in the broth containing cryoprotectant to prepare bacterial suspensions, and the bacterial suspensions are subpackaged and then stored in freezing at −80° C. Before test, the frozen bacteria are inoculated into appropriate agar dishes and cultured for growth. Anaerobic bacteria grow for 48 hours at 35° C. in a Bactron II oxygen-free cabinet (Shel Lab, Cornelius, Oreg.) before test. Haemophilus Test Medium (HTM, Teknova, Hollister, Calif.; Art. No.: 895120) is used to perform drug sensitivity test on Hemophilus using the microscale broth dilution method under aerobic and anaerobic conditions. Preparation and storage of all the above broths are performed in accordance with CLSI (1-3).

[6] = system: Haemophilus influenzae ATCC 49247; assay: as above
Method: as §1

[7] = system: Proteus vulgaris ATCC 1331; assay: MIC, agar dilution drug sensitivity test; conditions: Proteus vulgaris, ATCC1331, Proteus vulgaris ATCC 1331, read-out: MIC
[8] = system: Streptococcus parasanguinis MMX 5671; assay: MIC, agar dilution drug sensitivity test; conditions: Streptococcus parasanguinis, MMX5671, Streptococcus parasanguinis MMX 5671, read-out: MIC
[9] = system: Enterobacter aerogenes ATCC 13048; assay: MIC, agar dilution drug sensitivity test; conditions: Klebsiella aerogenes, ATCC13048, Enterobacter aerogenes ATCC 13048, read-out: MIC
[10] = system: Staphylococcus saprophyticus JMI 2016_703; assay: MIC, agar dilution drug sensitivity test; conditions: Aerobic
[11] = system: Bifidobacterium infantis subsp. Infantis ATCC 15702; assay: MIC, agar dilution drug sensitivity test; conditions: ATCC15702, Table 1
[12] = system: Klebsiella oxytoca JMI 933995; assay: MIC, agar dilution drug sensitivity test; conditions: JMI933995, Table 1
[13] = system: Salmonella spp ATCC 35987; assay: MIC, agar dilution drug sensitivity test; conditions: ATCC35987, Table 1
Method: In this embodiment, compound I-rifamycin-quinolizidone dual-action molecule is used in a drug sensitivity test on pathogenic bacteria associated with hepatic encephalopathy, the pathogenic bacteria including the above ammonia-producing bacteria. Except that Haemophilus is tested using the microscale broth dilution method, all the other bacteria are tested using the agar dilution method consistent with that in the Guideline of the Clinical and Laboratory Standards Institute (CLSI; 1-3). All the other drug susceptibility tests are performed under anaerobic conditions except that some selective isolates are tested under both aerobic and anaerobic conditions. Control compounds include metronidazole, rifampicin, clindamycin (under anaerobic conditions) and ciprofloxacin (under aerobic and anaerobic conditions).
The tested clinical isolates may be reference strains obtained from American Type Culture Collection, ATCC, Manassas, Va. After being received, the strains are respectively inoculated on appropriate agar plates and placed under optimized conditions for growth. The growing strains are cloned in the broth containing cryoprotectant to prepare bacterial suspensions, and the bacterial suspensions are subpackaged and then stored in freezing at −80° C. Before test, the frozen bacteria are inoculated into appropriate agar dishes and cultured for growth. Anaerobic bacteria grow for 48 hours at 35° C. in a Bactron II oxygen-free cabinet (Shel Lab, Cornelius, Oreg.) before test. […]
The Minimum Inhibitory Concentration (MIC) is determined using the agar dilution method.
The MIC values of all microorganisms except Haemophilus are determined using the agar dilution method in the CLSI (1-2). […] After culturing, the MIC is determined in accordance with the CLSI guideline (1-2).

[14] = system: Peptostreptococcus prevotii ATCC 9321; assay: MIC, agar dilution drug sensitivity test; conditions: Anaerococcus prevotii, ATCC9321, Table 1
[15] = ATCC49247, Haemophilus influenzae ATCC 49247, Aerobic
[16] = ATCC49247, Haemophilus influenzae ATCC 49247, Anaerobic

Row | Compound | MIC [1] [µg/mL] | MIC [2] [µg/mL] | MIC [3] [µg/mL] | MIC ([4]; Aerobic) [µg/mL] | MIC ([4]; Anaerobic) [µg/mL] | MIC [5] [µg/mL] | MIC [6, 15] [µg/mL] | MIC [6, 16] [µg/mL] | MIC ([7]; Aerobic) [µg/mL] | MIC ([7]; Anaerobic) [µg/mL] | MIC ([8]; Aerobic) [µg/mL] | MIC ([8]; Anaerobic) [µg/mL] | MIC ([9]; Aerobic) [µg/mL] | MIC ([9]; Anaerobic) [µg/mL] | MIC [10] [µg/mL] | MIC [11] [µg/mL] | MIC [12] [µg/mL] | MIC [13] [µg/mL] | MIC [14] [µg/mL]
1 | O=C(O)c1cn(C2CC2)c2cc(N3CCNCC3)c(F)cc2c1=O [Ciprofloxacin, ciprofloxacin] | 1 (≈ 3.02 µM) | 1 (≈ 3.02 µM) | 1 (≈ 3.02 µM) | 0.12 (≈ 0.362 µM) | 0.25 (≈ 0.754 µM) | ≤ 0.12 | ≤ 0.12 | ≤ 0.12 | 0.03 (≈ 0.0905 µM) | 0.03 (≈ 0.0905 µM) | 1 (≈ 3.02 µM) | 1 (≈ 3.02 µM) | 0.03 (≈ 0.0905 µM) | 2 (≈ 6.04 µM) | 1 (≈ 3.02 µM) | 2 (≈ 6.04 µM) | 0.015 (≈ 0.0453 µM) | 0.015 (≈ 0.0453 µM) | 1 (≈ 3.02 µM)
2 | CO[C@H]1/C=C/O[C@@]2(C)Oc3c(C)c(O)c4c(O)c(c(/C=N/N5CCC(N(C)C6([C@@H]7CCN(c8c(F)cn9c(=O)c(C(=O)O)cc(C%10CC%10)c9c8C)C7)CC6)CC5)c(O)c4c3C2=O)NC(=O)/C(C)=C\C=C\[C@H](C)[C@H](O)[C@@H](C)[C@@H](O)[C@@H](C)[C@H](OC(C)=O)[C@@H]1C [Compound I, (R)-3-[(4-{1-[1-(3-carboxy-1-cyclopropyl-7-fluoro-9-methyl-4-oxo-4H-quinolizine-8-yl)-pyrrolidin-3-yl-cyclopropyl]-methylamino}-piperidin-1-ylimino)-methylene]-rifamycin SV] | 0.5 (≈ 0.415 µM) | 16 (≈ 13.3 µM) | 0.06 (≈ 0.0498 µM) | 4 (≈ 3.32 µM) | > 64 | 0.25 (≈ 0.207 µM) | 0.12 (≈ 0.0996 µM) | 0.12 (≈ 0.0996 µM) | 0.5 (≈ 0.415 µM) | > 64 | 0.25 (≈ 0.207 µM) | 8 (≈ 6.64 µM) | 1 (≈ 0.83 µM) | > 64 | 0.5 (≈ 0.415 µM) | 2 (≈ 1.66 µM) | 4 (≈ 3.32 µM) | 0.06 (≈ 0.0498 µM) | 0.03 (≈ 0.0249 µM)

Reference: US20200061047A1, “NEW USE OF RIFAMYCIN-QUINOLIZIDONE DUAL-ACTION MOLECULE” (TenNor Therapeutics Limited, priority 2017, published 2020)
